Results: the supplement of paper PMC10307832

What was measured:
Assay in all cases: relative viability (nuclei count vs DMSO), 5 days (fraction); higher = more cells survive
[1] = compound: CC[C@@H](C)CNCC(=O)N1CCC2=C([C@@H]1COC3=CC=CC(=C3)C)C=CS2 [RU-SKI 43] + Cc1cc(Nc2cc(N3CCN(C)CC3)nc(Sc3ccc(NC(=O)C4CC4)cc3)n2)n[nH]1 [Tozasertib] (partner 0.1 µM)
Procedure, shortened: (§1)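 Lung cancer cell lines in 1536-well plates were dosed by pin tool the day after seeding, either with one drug alone or with a fixed anchor-drug dose plus five library-drug doses (not always all listed) in √10 steps. After 5 days, cells were fixed and their nuclei stained in one step (final 0.05% Triton X-100, 1% formaldehyde, 1 ug/ml Hoechst), then counted on 4× images. Relative viability is the nuclei count in treated wells divided by that in vehicle wells. Values are medians of duplicate plates.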

[2] = compound: CCc1c2c(nc3ccc(OC(=O)N4CCC(N5CCCCC5)CC4)cc13)-c1cc3c(c(=O)n1C2)COC(=O)[C@]3(O)CC [Irinotecan] + Cc1nc(Nc2ncc(C(=O)Nc3c(C)cccc3Cl)s2)cc(N2CCN(CCO)CC2)n1 [Dasatinib] (partner 0.075 µM)
Procedure, shortened: as §1

[3] = compound: CCc1c2c(nc3ccc(OC(=O)N4CCC(N5CCCCC5)CC4)cc13)-c1cc3c(c(=O)n1C2)COC(=O)[C@]3(O)CC [Irinotecan] + Nc1ncn([C@H]2C[C@H](O)[C@@H](CO)O2)c(=O)n1 [Decitabine] (partner 2 µM)
Procedure, shortened: as §1

[4] = compound: Cn1cc(-c2cnc3ccc4ccc(CS(=O)(=O)NCc5ccccn5)cc4c(=O)c3c2)cn1 [MK-8033] + COc1cc2c(Oc3ccc(NC(=O)C4(C(=O)Nc5ccc(F)cc5)CC4)cc3F)ccnc2cc1OCCCN1CCOCC1 [Foretinib] (partner 0.25 µM)
Procedure, shortened: as §1

Q: How did the relative viability ([1]; first compound 0.1 µM) turn out when UMC-11 was run?
A: Its relative viability is 0.204.

Q: What about the relative viability ([1]; first compound 0.3162 µM) of the same cell line?
A: Its relative viability is 0.197.

Q: And the relative viability ([1]; first compound 1 µM)?
A: Its relative viability is 0.19.

Q: And the relative viability ([1]; first compound 3.162 µM)?
A: The relative viability was 0.175.

Q: What about the relative viability ([1]; first compound 10 µM) of the same cell line?
A: The relative viability was 0.18.

Q: What about the relative viability ([2]; first compound 0.6325 µM) of the same cell line?
A: Its relative viability is 0.422.

Q: And the relative viability ([2]; first compound 2 µM)?
A: The relative viability was 0.372.

Q: What about the relative viability ([2]; first compound 6.325 µM) of the same cell line?
A: Its relative viability is 0.232.

Q: And the relative viability ([2]; first compound 20 µM)?
A: Its relative viability is 0.104.

Q: And the relative viability ([3]; first compound 0.6325 µM)?
A: The relative viability was 0.589.

Q: What about the relative viability ([3]; first compound 2 µM) of the same cell line?
A: The relative viability was 0.461.

Q: And the relative viability ([3]; first compound 6.325 µM)?
A: Its relative viability is 0.347.

Q: And the relative viability ([3]; first compound 20 µM)?
A: The relative viability was 0.2.

Q: What about the relative viability ([4]; first compound 0.02 µM) of the same cell line?
A: Its relative viability is 1.08.

Q: And the relative viability ([4]; first compound 0.06325 µM)?
A: The relative viability was 1.04.

Q: What about the relative viability ([4]; first compound 0.2 µM) of the same cell line?
A: The relative viability was 0.989.

Q: What about the relative viability ([4]; first compound 2 µM) of the same cell line?
A: The relative viability was 1.08.
